Patent US20240102075A1, “METHOD FOR QUANTIFYING 25-HYDROXYVITAMIN D, HYDROXYLASE, QUANTIFICATION COMPOSITION, QUANTIFICATION KIT, ELECTRODE, SENSOR CHIP, AND SENSOR” (KIKKOMAN CORPORATION, priority 2021, published 2024)

What was measured:
[1] = cited from earlier work
[2] = hydroxylase activity using ferredoxin as a mediator, absorbance at 340 nm; format: biochemical; conditions: 0.5 mM 25-hydroxyvitamin D3, ferredoxin/ferredoxin reductase/NADPH, 90 seconds, 30° C.
Method: VDH obtained by the above-described method and ferredoxin were used to measure hydroxylase activity using 25-hydroxyvitamin D3, which is a vitamin D derivative, as a substrate.
4.19 mg of 25-hydroxyvitamin D3 was dissolved in 1 ml of DMSO (final concentration: 10 mM). Since 25-hydroxyvitamin D3 is lipid-soluble, it was diluted to 1 mM (concentration at the time of measurement: 0.5 mM) using 4.0% (v/v) TritonX-100 solution to maintain solubility.
After incubating 500 μl of the measurement reagent consisting of the composition of Table 2 at 30° C. for 3 minutes, 500 μl of the substrate reagent was added, and the absorbance (Abs) at the wavelength 340 nm was measured over time for 90 seconds using a spectrophotometer (U-3900, manufactured by Hitachi High-Tech Science Corporation). […] Therefore, it was shown that 25-hydroxyvitamin D can be quantified by hydroxylase activity of VDH using ferredoxin as a mediator.

## 25-hydroxyvitamin D
[1]; in vivo
  blood half-life: 2-3 weeks

## 1,25-dihydroxyvitamin D
[1]; in blood
  half-life in the blood: about 15 hours

B1: VDH: Vitamin D hydroxylase derived from Pseudonocardia autotrophica NBRC12743 strain, SEQ ID NO: 1, expressed in E. coli (protein, listed as Pseudonocardia autotrophica)
chain: MALTTTGTEQHDLFSGTFWQNPHPAYAALRAEDPVRKLALPDGPVWLLTRYADVREAFVDPRLSKDWRHTLPEDQRADMPATPTPMMILMDPPDHTRLRKLVGRSFTVRRMNELEPRITEIADGLLAGLPTDGPVDLMREYAFQIPVQVICELLGVPAEDRDDFSAWSSVLVDDSPADDKNAAMGKLHGYLSDLLERKRTEPDDALLSSLLAVSDEDGDRLSQEELVAMAMLLLIAGHETTVNLIGNGVLALLTHPDQRKLLAEDPSLISSAVEEFLRFDSPVSQAPIRFTAEDVTYSGVTIPAGEMVMLGLAAANRDADWMPEPDRLDITRDASGGVFFGHGIHFCLGAQLARLEGRVAIGRLFADRPELALAVGLDELVYRESTLVRGLSRMPVTMGPRSA
[2]
  change in absorbance (A340) compared to the blank: significant change in absorbance
